Values quoted from earlier work as cited in US20210339043A1, “NEURAL STIMULATION VIA VISUAL STIMULATION” (Cognito Therapeutics, Inc., priority 2016, published 2021).

Details: 70 kg adult; for estimated absorbed radiation dose, Adrenals: organ: Adrenals; for estimated absorbed radiation dose, Brain: organ: Brain; for estimated absorbed radiation dose, Breasts: organ: Breasts; for estimated absorbed radiation dose, Heart Wall: organ: Heart Wall; for estimated absorbed radiation dose, Kidneys: organ: Kidneys; for estimated absorbed radiation dose, Lungs: organ: Lungs; for estimated absorbed radiation dose, Muscle: organ: Muscle; for estimated absorbed radiation dose, Ovaries: organ: Ovaries; for estimated absorbed radiation dose, Pancreas: organ: Pancreas; for estimated absorbed radiation dose, Red marrow: organ: Red marrow; for estimated absorbed radiation dose, Skin: organ: Skin; for estimated absorbed radiation dose, Spleen: organ: Spleen; for estimated absorbed radiation dose, Testes: organ: Testes; for estimated absorbed radiation dose, Thymus: organ: Thymus; for estimated absorbed radiation dose, Thyroid: organ: Thyroid; for estimated absorbed radiation dose, Urinary bladder wall: organ: Urinary bladder wall; for estimated absorbed radiation dose, Uterus: organ: Uterus

| estimated absorbed radiation dose, Adrenals [rad/mCi] | estimated absorbed radiation dose, Brain [rad/mCi] | estimated absorbed radiation dose, Breasts [rad/mCi] | estimated absorbed radiation dose, Heart Wall [rad/mCi] | estimated absorbed radiation dose, Kidneys [rad/mCi] | estimated absorbed radiation dose, Lungs [rad/mCi] | estimated absorbed radiation dose, Muscle [rad/mCi] | estimated absorbed radiation dose, Ovaries [rad/mCi] | estimated absorbed radiation dose, Pancreas [rad/mCi] | estimated absorbed radiation dose, Red marrow [rad/mCi] | estimated absorbed radiation dose, Skin [rad/mCi] | estimated absorbed radiation dose, Spleen [rad/mCi] | estimated absorbed radiation dose, Testes [rad/mCi] | estimated absorbed radiation dose, Thymus [rad/mCi] | estimated absorbed radiation dose, Thyroid [rad/mCi] | estimated absorbed radiation dose, Urinary bladder wall [rad/mCi] | estimated absorbed radiation dose, Uterus [rad/mCi] | Structure (SMILES) | further results |
| --- | --- | --- | --- | --- | --- | --- | --- | --- | --- | --- | --- | --- | --- | --- | --- | --- | --- | --- |
| 0.048 | 0.07 | 0.034 | 0.22 | 0.074 | 0.064 | 0.039 | 0.053 | 0.096 | 0.047 | 0.03 | 0.14 | 0.041 | 0.044 | 0.039 | 0.32 | 0.062 | OC[C@H]1O[C@@H](O)[C@H]([18F])[C@@H](O)[C@@H]1O [FDG] | critical organ (radiation dose): urinary bladder wall, followed by heart, spleen and pancreas; estimated absorbed radiation dose, Gallbladder Wall (organ: Gallbladder Wall): 0.049 rad/mCi; estimated absorbed radiation dose, Liver (organ: Liver): 0.058 rad/mCi; estimated absorbed radiation dose, Lower Large Intestine Wall (organ: Lower Large Intestine Wall): 0.051 rad/mCi; estimated absorbed radiation dose, Small Intestine (organ: Small Intestine): 0.047 rad/mCi; estimated absorbed radiation dose, Upper Large Intestine Wall (organ: Upper Large Intestine Wall): 0.046 rad/mCi |
| 0.05 | 0.037 | 0.023 | 0.048 | 0.048 | 0.032 | 0.032 | 0.065 | 0.053 | 0.053 | 0.022 | 0.033 | 0.025 | 0.027 | 0.025 | 0.1 | 0.058 | CNc1ccc(/C=C/c2ccc(OCCOCCOCC[18F])nc2)cc1 [18F-AV-45] | – |
